The compounds below were run against D2 receptor (Homo sapiens, UniProt P14416) (assay: [3H]Thymidine uptake assay for D2 intrinsic activity). Settings: Table 1; test compound 1 μM; 1 μM Quinpirole = 100% intrinsic activity.
D2 receptor, sequence (P14416 whole entry): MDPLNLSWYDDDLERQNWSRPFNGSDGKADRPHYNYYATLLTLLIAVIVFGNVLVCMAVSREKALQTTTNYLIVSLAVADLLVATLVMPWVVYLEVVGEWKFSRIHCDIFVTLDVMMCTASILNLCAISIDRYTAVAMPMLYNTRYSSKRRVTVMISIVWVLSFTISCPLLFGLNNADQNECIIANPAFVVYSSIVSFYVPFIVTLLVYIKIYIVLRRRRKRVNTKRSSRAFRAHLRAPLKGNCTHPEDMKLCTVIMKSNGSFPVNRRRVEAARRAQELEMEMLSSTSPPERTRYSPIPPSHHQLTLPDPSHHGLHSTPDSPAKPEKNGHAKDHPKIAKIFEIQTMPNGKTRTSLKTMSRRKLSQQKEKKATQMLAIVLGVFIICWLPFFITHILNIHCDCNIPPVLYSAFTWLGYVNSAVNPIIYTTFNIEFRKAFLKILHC
Assay type: cell-based
Protocol: D2 intrinsic activity of title compounds of the Examples, below, was determined using the [^3H]thymidine uptake assay described below.
[^3H]Thymidine Uptake Assay for D2 Intrinsic Activity
Cells are serum deprived by washing twice with 200 μl of serum-free media. 90 μl serum-free media was added to each well. The plates ware incubated for two to three hours. 10 μl of serum-containing media, as a positive control, vehicle (serum-free media), negative control (an antagonist) or test compounds and standards (10 μl of a 10 μM solution for a final concentration of 1 μM) in serum-free media were added to wells. The plates are returned to the incubator. Eighteen hours later [^3H]thymidine is added (0.5 μCi/well in 10 μl of serum-free media) and the plates are returned to the incubator. […] The plates are returned to the incubator, once again. One hour later the assay is terminated by rapid filtration through Whatman GF/C glass fiber filters. Filters are washed four times with 500 ml of 50 mM Tris-HCl pH 7.0 buffer, for example, using a Brandel MLR-96T cell harvester. […] Intrinsic activity is defined as total uptake (1 μM Quinpirole) minus serum-free media (no uptake). Test compounds are compared to 1 μM Quinpirole (full DA agonist), which was classified as 100% intrinsic activity.
`O=C1CCc2ccc(OCCCN3CCN(c4cccc5ccccc45)CC3)nc2N1` [Example C3, 7-[3-(4-Naphthalen-1-yl-piperazin-1-yl)-propoxy]-3,4-dihydro-1H-[1,8]naphthyridin-2-one] showed an Emax at 1 µM of 22%. With `O=c1ccc2ccc(OCCN3CCN(c4cccc(Cl)c4Cl)CC3)nc2[nH]1` [Example C4, 7-{2-[4-(2,3-Dichloro-phenyl)-piperazin-1-yl]-ethoxy}-1H-[1,8]naphthyridin-2-one] the Emax at 1 µM was 2%. `CC(CCCN1CCN(c2cccc(Cl)c2Cl)CC1)Oc1ccc2c(n1)NC(=O)CC2` (stereo not drawn) [Example C5, 7-{4-[4-(2,3-Dichloro-phenyl)-piperazin-1-yl]-1-methyl-butoxy}-3,4-dihydro-1H-[1,8]naphthyridin-2-one] was tested, and the Emax at 1 µM was 40%. `CC(CCCN1CCN(c2cccc3ccccc23)CC1)Oc1ccc2c(n1)NC(=O)CC2` (stereo not drawn) [Example C6, 7-[1-Methyl-4-(4-naphthalen-1-yl-piperazin-1-yl)-butoxy]-3,4-dihydro-1H-[1,8]naphthyridin-2-one] showed an Emax at 1 µM of 44%. In the case of `CC(C)(CCCN1CCN(c2cccc(Cl)c2Cl)CC1)Oc1ccc2c(n1)NC(=O)CC2` [Example C7, 7-{4-[4-(2,3-Dichloro-phenyl)-piperazin-1-yl]-1,1-dimethyl-butoxy}-3,4-dihydro-1H-[1,8]naphthyridin-2-one], the Emax at 1 µM is reported as 46%. With `CC(C)(CCCN1CCN(c2cccc3ccccc23)CC1)Oc1ccc2c(n1)NC(=O)CC2` [Example C8, 7-[1,1-Dimethyl-4-(4-naphthalen-1-yl-piperazin-1-yl)-butoxy]-3,4-dihydro-1H-[1,8]naphthyridin-2-one] the Emax at 1 µM was 33%. `Cc1cccc(N2CCN(CCCCCc3ccc4c(n3)NC(=O)CC4)CC2)c1Cl` [Example C10, 7-{5-[4-(2-Chloro-3-methyl-phenyl)-piperazin-1-yl]-pentyl}-3,4-dihydro-1H-[1,8]naphthyridin-2-one] was tested, and the Emax at 1 µM was 5%. In the case of `O=C1CCc2ccc(CCCCCN3CCN(c4ccc(F)c(Cl)c4Cl)CC3)nc2N1` [Example C11, 7-{5-[4-(2,3-Dichloro-4-fluoro-phenyl)-piperazin-1-yl]-pentyl}-3,4-dihydro-1H-[1,8]naphthyridin-2-one], the Emax at 1 µM is reported as 7%. Compound `O=C1CCc2ccc(CCCCCN3CCN(c4cccc5c4CCCC5)CC3)nc2N1` [Example C12, 7-{5-[4-(5,6,7.8-Tetrahydro-naphthalen-1-yl)-piperazin-1-yl]-pentyl}-3,4-dihydro-1H-[1,8]naphthyridin-2-one] has an Emax at 1 µM of 12%. Work on `O=C1CCc2ccc(CCCCCN3CCN(c4cccc5ccccc45)CC3)nc2N1` [Example C13, 7-[5-(4-Naphthalen-1-yl-piperazin-1-yl)-pentyl]-3,4-dihydro-1H-[1,8]naphthyridin-2-one] yielded an Emax at 1 µM of 14%. In the case of `O=C1CCc2ccc(CCCCCN3CCN(c4ccc(F)cc4Cl)CC3)nc2N1` [Example C14, 7-{5-[4-(2-Chloro-4-fluoro-phenyl)-piperazin-1-yl]-pentyl}-3,4-dihydro-1H-[1,8]naphthyridin-2-one], the Emax at 1 µM is reported as 10%. Compound `Cc1c(F)ccc(N2CCN(CCCCCc3ccc4c(n3)NC(=O)CC4)CC2)c1Cl` [Example C15, 7-{5-[4-(2-Chloro-4-fluoro-3-methyl-phenyl)-piperazin-1-yl]-pentyl}-3,4-dihydro-1H-[1,8]naphthyridin-2-one] has an Emax at 1 µM of 8%. Work on `Cc1cccc(N2CCN(CCCCCc3ccc4c(n3)NC(=O)CC4)CC2)n1` [Example C16, 7-{5-[4-(6-Methyl-pyridin-2-yl)-piperazin-1-yl]-pentyl}-3,4-dihydro-1H-[1,8]naphthyridin-2-one] yielded an Emax at 1 µM of 34%. `CCc1cccc(N2CCN(CCCCCc3ccc4c(n3)NC(=O)CC4)CC2)n1` [Example C17, 7-{5-[4-(6-Ethyl-pyridin-2-yl)-piperazin-1-yl]-pentyl}-3,4-dihydro-1H-[1,8]naphthyridin-2-one] showed an Emax at 1 µM of 21%. In the case of `O=C1CCc2ccc(CCCCCN3CCN(c4cccc(C5CC5)n4)CC3)nc2N1` [Example C18, 7-{5-[4-(6-Cyclopropyl-pyridin-2-yl)-piperazin-1-yl]-pentyl}-3,4-dihydro-1H-[1,8]naphthyridin-2-one], the Emax at 1 µM is reported as 34%. Work on `Cc1cc(C)nc(N2CCN(CCCCCc3ccc4c(n3)NC(=O)CC4)CC2)c1` [Example C19, 7-{5-[4-(4,6-Dimethyl-pyridin-2-yl)-piperazin-1-yl]-pentyl}-3,4-dihydro-1H-[1,8]naphthyridin-2-one] yielded an Emax at 1 µM of 13%. `Cc1cc2ccc(OCCCCN3CCN(c4cccc(Cl)c4Cl)CC3)nc2[nH]c1=O` [Example D4, 7-{4-[4-(2,3-Dichloro-phenyl)-piperazin-1-yl]-butoxy}-3-methyl-1H-[1,8]naphthyridin-2-one] showed an Emax at 1 µM of 16%. For `O=c1[nH]c2nc(OCCCCN3CCN(c4cccc(Cl)c4Cl)CC3)ccc2cc1F` [Example D9, 7-{4-[4-(2,3-Dichloro-phenyl)-piperazin-1-yl]-butoxy}-3-fluoro-1H-[1,8]naphthyridin-2-one], the Emax at 1 µM was 15%. Compound `O=c1[nH]c2nc(OCCCCN3CCN(c4cccc5ccccc45)CC3)ccc2cc1F` [Example D10, 3-Fluoro-7-[4-(4-naphthalen-1-yl-piperazin-1-yl)-butoxy]-1H-[1,8]naphthyridin-2-one] has an Emax at 1 µM of 22%. `O=c1[nH]c2nc(OCCCCN3CCN(c4cccc5ccccc45)CC3)ccc2cc1CC(F)(F)F` [Example D11, 7-[4-(4-Naphthalen-1-yl-piperazin-1-yl)-butoxy]-3-(2,2,2-trifluoro-ethyl)-1H-[1,8]naphthyridin-2-one] gave an Emax at 1 µM of 30%. Compound `CC1(C)Cc2ccc(CCCCCN3CCN(c4cccc(Cl)c4Cl)CC3)nc2NC1=O` [Example D12, 7-{5-[4-(2,3-Dichloro-phenyl)-piperazin-1-yl]-pentyl}-3,3-dimethyl-3,4-dihydro-1H-[1,8]naphthyridin-2-one] has an Emax at 1 µM of 3%. `CC1(C)Cc2ccc(OCCCCN3CCN(c4cccc(Cl)c4Cl)CC3)nc2NC1=O` [Example D13, 7-{4-[4-(2,3-Dichloro-phenyl)-piperazin-1-yl]-butoxy}-3,3-dimethyl-3,4-dihydro-1H-[1,8]naphthyridin-2-one] showed an Emax at 1 µM of 19%. Work on `CC1(C)C(=O)Nc2nc(OCCCCN3CCN(c4cccc(Cl)c4Cl)CC3)ccc2C1=O` [Example D14, 7-{4-[4-(2,3-Dichloro-phenyl)-piperazin-1-yl]-butoxy}-3,3-dimethyl-1H-[1,8]naphthyridine-2,4-dione] yielded an Emax at 1 µM of 3%. In the case of `CC1(C)C(=O)Nc2nc(OCCCCN3CCN(c4cccc(Cl)c4Cl)CC3)ccc2C1O` (stereo not drawn) [Example D15, 7-{4-[4-(2,3-Dichloro-phenyl)-piperazin-1-yl]-butoxy}-4-hydroxy-3,3-dimethyl-3,4-dihydro-1H-[1,8]naphthyridin-2-one], the Emax at 1 µM is reported as 25%. `CC1(C)CC(=O)Nc2nc(OCCCCN3CCN(c4cccc5ccccc45)CC3)ccc21` [Example D16, 4,4-Dimethyl-7-[4-(4-naphthalen-1-yl-piperazin-1-yl)-butoxy]-3,4-dihydro-1H-[1,8]naphthyridin-2-one] was tested, and the Emax at 1 µM was 31%. Work on `CC1(C)CC(=O)Nc2nc(OCCCCN3CCN(c4cccc(Cl)c4Cl)CC3)ccc21` [Example D17, 7-{4-[4-(2,3-Dichloro-phenyl)-piperazin-1-yl]-butoxy}-4,4-dimethyl-3,4-dihydro-1H-[1,8]naphthyridin-2-one] yielded an Emax at 1 µM of 29%. With `CC1(C)CC(=O)Nc2nc(OCCCCN3CCN(c4cccc5c4CCCC5)CC3)ccc21` [Example D18, 4,4-Dimethyl-7-{4-[4-(5,6,7,8-tetrahydro-naphthalen-1-yl)-piperazin-1-yl]-butoxy}-3,4-dihydro-1H-[1,8]naphthyridin-2-one] the Emax at 1 µM was 37%. Compound `CC1(C)CC(=O)Nc2nc(OCCCCN3CCN(c4cccc5c4CCC5)CC3)ccc21` [Example D19, 7-[4-(4-Indan-4-yl-piperazin-1-yl)-butoxy]-4,4-dimethyl-3,4-dihydro-1H-[1,8]naphthyridin-2-one] has an Emax at 1 µM of 39%. `Cc1cccc(N2CCN(CCCCOc3ccc4c(n3)NC(=O)CC4(C)C)CC2)c1Cl` [Example D20, 7-{4-[4-(2-Chloro-3-methyl-phenyl)-piperazin-1-yl]-butoxy}-4,4-dimethyl-3,4-dihydro-1H-[1,8]naphthyridin-2-one] was tested, and the Emax at 1 µM was 44%.

Same assay, conditions: Table 2; test compound 1 μM; 1 μM Quinpirole = 100% intrinsic activity
`CC1(C)CC(=O)Nc2nc(OCCCCN3CCN(c4cccc5c4OCCO5)CC3)ccc21` [Example C2′, 7-{4-[4-(2,3-Dihydro-benzo[1,4]dioxin-5-yl)-piperazin-1-yl]-butoxy}-4,4-dimethyl-3,4-dihydro-1H-[1,8]naphthyridin-2-one] showed an Emax at 1 µM of 22%. `CC1(C)CC(=O)Nc2nc(OCCCCN3CCN(c4cccc5c4NC(=O)CC5)CC3)ccc21` [Example C3′, 4,4-Dimethyl-7-{4-[4-(2-oxo-1,2,3,4-tetrahydro-quinolin-8-yl)-piperazin-1-yl]-butoxy}-3,4-dihydro-1H-[1,8]naphthyridin-2-one] was tested, and the Emax at 1 µM was 19%. `CC1(C)CC(=O)Nc2nc(OCCCCN3CCN(c4cccc5ccc(=O)[nH]c45)CC3)ccc21` [Example C4′, 4,4-Dimethyl-7-{4-[4-(2-oxo-1,2-dihydro-quinolin-8-yl)-piperazin-1-yl]-butoxy}-3,4-dihydro-1H-[1,8]naphthyridin-2-one] showed an Emax at 1 µM of 21%. `CC1(C)CC(=O)Nc2nc(OCCCCN3CCN(c4cccc5ccoc45)CC3)ccc21` [Example C5′, 7-[4-(4-Benzofuran-7-yl-piperazin-1-yl)-butoxy]-4,4-dimethyl-3,4-dihydro-1H-[1,8]naphthyridin-2-one] was tested, and the Emax at 1 µM was 23%. `CC1(C)CC(=O)Nc2nc(OCCCCN3CCN(c4cccc5c4OCCC5)CC3)ccc21` [Example C6′, 7-[4-(4-Chroman-8-yl-piperazin-1-yl)-butoxy]-4,4-dimethyl-3,4-dihydro-1H-[1,8]naphthyridin-2-one] gave an Emax at 1 µM of 24%. `O=C1CCc2cc(F)c(OCCCCN3CCN(c4cccc5cccnc45)CC3)nc2N1` [Example D1′, 6-Fluoro-7-[4-(4-quinolin-8-yl-piperazin-1-yl)-butoxy]-3,4-dihydro-1H-[1,8]naphthyridin-2-one] gave an Emax at 1 µM of 24%. `O=C1CCc2cc(F)c(OCCCCN3CCN(c4cccc5cnccc45)CC3)nc2N1` [Example D2′, 6-Fluoro-7-[4-(4-isoquinolin-5-yl-piperazin-1-yl)-butoxy]-3,4-dihydro-1H-[1,8]naphthyridin-2-one] was tested, and the Emax at 1 µM was 40%.

— patent publication US7160888B2, “[1,8]naphthyridin-2-ones and related compounds for the treatment of schizophrenia” (Warner Lambert Company LLC, priority 2003, dated 2007)
